B1: urinastatin (protein, UniProt P02760 206-352, looked up)
Inter-alpha-trypsin inhibitor …: AVLPQEEEGSGGGQLVTEVTKKEDSCQLGYSAGPCMGMTSRYFYNGTSMACETFQYGGCMGNGNNFVTEKECLQTCRTVAACNLPIVRGPCRAFIQLWAFDAVKGKCVLFPYGGCQGNGNKFYSEKECREYCGVPGDGDEELLRFSN
modifications: Inter-alpha-trypsin inhibitor light chain
notes: glycoprotein of less than about 67 kD purified from human urine

Columns and labels:
[1] = Example 2 clinical comparison of regimens in 168 patients with imminent premature delivery; type: in vivo, human
Protocol: 168 patients in their 24th to 35 week of pregnancy were diagnosed with imminent premature delivery. The diagnosis of imminent premature delivery was based on a tocolysis index of 2 or greater. Factors of cervical dilation, ruptured membranes, uterine activity and vaginal bleeding were considered for the tocolysis index. The index is the sum of these points.
A number of regimens were compared. Group 1 received ritodrine intravenous infusion at 50-300 μg per day. Groups 2 and 3 were given daily urinastatin suppositories containing 5000 units and 1000 units, respectively. Group 4 received IV ritodrine at 50-300 μg per day and one 1000 unit urinastatin suppository per day. Group 5 received IV ritodrine at 50-300 μg per day, one 1000 unit urinastatin suppository per day, and cephalosporin. The patients were treated until they delivered.
The tocolysis index immediately before the start of treatment varied from 2-8. Elastase levels obtained from specimen of endocervical secretions were determined at admission to the study. "Hours to Neg UA", or the time until the number of uterine contractions in 30 minutes decreased to one or less, was reported. "Recur UA", or the proportion of women experiencing recurrence of at least one uterine contraction every 30 minutes after therapy lasting 4 days or longer was discontinued also was observed. "EGA Toco" is the estimated gestational age at the beginning of therapy. "EGA Del" is the estimated gestational age at delivery. The "interval" is the number of weeks between EGA Toco and EGA Del. "PTD<37 Wks" is the number of preterm births before 37 weeks. "PTD<34 Wks" is the number of preterm births before 34 weeks, or seriously premature infants.

[2] = cited from earlier work; for time required for the number of uterine contractions (UC) to decrease to less than 1 per 30 minutes: 24th-35th weeks of pregnancy, tocolysis index 3-4, no PROM
granulocyte elastase = settings: patients treated with urinastatin (groups B, C and D); cited from earlier work

Molecule | preterm deliveries of less than 34 wk, share of all deliveries ([1]; PTD<34 Wks) | preterm deliveries of less than 37 wk, share of all deliveries ([1]; PTD<37 Wks) | rate of recurrence of uterine activity ([1]; in spite of continuous administration of the drug) | Hours to Neg UA: time until uterine contractions in 30 minutes decreased to one or less ([1]; study average 3.1 hr) | patients with recurrence of UC after therapy was discontinued ([2]; therapy discontinued when UC had been depressed for 4 days) | time required for the number of uterine contractions (UC) to decrease to less than 1 per 30 minutes ([2]; women) | women with premature deliveries ([2]; women, 24th-35th weeks, tocolysis index 3-4) | premature deliveries (number of patients) ([2]; groups B and D had 9 and 8 patients, group C 14) | elastase in vaginal secretions (granulocyte elastase)
CC(NCCc1ccc(O)cc1)C(O)c1ccc(O)cc1 (stereo not shown) [ritodrine] | approximately 21% | ~42% | over 30% | 1.4 h | Approximately 60% | about an hour | 25% |  | 
B1 |  |  |  |  |  | about 6 hours |  | no premature deliveries | decreased

Source: patent US5650394A, “Use of urinastatin-like compounds to prevent premature delivery” (Adeza Biomedical, priority 1993, dated 1997)
